Test results from patent US6218427A, “Chromene-3-carboxylate derivatives” (Shionogi & Co., Ltd., priority 1996, dated 2001).

Legend:
foam cells = settings: American Journal of Pathology vol. 146, No.4, 819-826 (1995); cited from earlier work
[1] = target: T1, endothelin A (ETA) receptor (Rattus norvegicus, UniProt P26684); assay: Measurement of affinity for endothelin A (ETA) receptor: inhibition of 125I-labeled endothelin-1 binding to A7r5 cells; settings: 125I-endothelin-1 8.3 pM, A7r5 cells derived from rat aorta, 37° C., 1 h
T1 construct: smooth muscle A7r5 cells derived from rat aorta; endogenous in cells; host or cells: A7r5 (rat aorta smooth muscle cells)
T1 sequence (P26684 21-426): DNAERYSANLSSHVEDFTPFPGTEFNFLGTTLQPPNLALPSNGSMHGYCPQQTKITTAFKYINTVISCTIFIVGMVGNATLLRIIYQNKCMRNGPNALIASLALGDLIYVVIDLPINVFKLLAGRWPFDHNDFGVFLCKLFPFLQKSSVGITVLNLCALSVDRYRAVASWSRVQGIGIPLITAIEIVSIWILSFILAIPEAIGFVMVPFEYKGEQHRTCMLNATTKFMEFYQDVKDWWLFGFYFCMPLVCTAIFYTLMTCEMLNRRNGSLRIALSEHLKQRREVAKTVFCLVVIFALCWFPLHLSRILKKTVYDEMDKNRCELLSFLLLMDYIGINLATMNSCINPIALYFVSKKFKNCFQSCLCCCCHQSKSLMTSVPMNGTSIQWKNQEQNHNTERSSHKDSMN
Method: Experiment 1 Measurement of affinity for endothelin A (ETA) receptor
Affinities for the ETA receptor were measured from the potency for inhibition of binding of ^125 I-labeled endotheline-1 to smooth muscle A7r5 cells derived from rat aorta. In brief, the cells cultured in 48-well plates were washed with buffer, and incubated in 0.3 ml of Hepes buffered Hanks' solution containing labeled endothelin-1 (8.3 pM) and various kinds of protease inhibitors in the presence or absence of the compound of the present invention at 37° C. for 1 h. The incubation was terminated by rapid removal of the incubation medium and the cells were washed with a HEPES buffered Hanks' solution. The radioactivity of ^125 I-labeled endothelin-1 bound to the cells was determined with a gamma-counter. The specific binding was calculated by subtracting the non-specific binding which was determined in the presence of 10^-7 M non radioactive endothelin-1 from the total binding.

[2] = Effect on peripheral circulatory insufficiency (tail blood flow after 3° C. immersion); assay type: in vivo, Wistar rats
Method: Experiment 4 Effect on peripheral circulatory insufficiency
Using Wistar rats, the peripheral circulatory insufficiency model was produced by immersing the rat tail tip (2-3 cm) in 1° C. water for 9 h, and experiments were performed at 3 weeks after above treatment. Tail blood flows in peripheral circulatory insufficiency rats were measured with laser-Doppler flowmetry with a tablet probe during immersing the whole tail in 3° C. water (30 min) The probe was held directly adjacent to the ventral surface of the tail, approximately 14 cm from the tip. To evaluate the effects of the compound of the present invention, peripheral circulatory insufficiency rats administered by the compound of the present invention (I-36, 30 mg/kg, po) at 2 h before 3° C. immersion.
In the normal Wistar rats, tail blood flow was transiently declined after 3° C. immersion, and gradually recovered up to about 70 % of basal level at 25 to 30 min after the immertion (normal rat). On the other hand, in the peripheral circulatory insufficiency rats, the tail blood flow measured immediately before administration of the compound of the present invention recovered to no more than 40% of basal level (peripheral circulatory insufficiency rat). […] Three days after administration of the compound of the present invention, when the circulatory effects of the compound was supposed to fully disappear, tail blood flows during 3° C. immersion were measured again. […] For statistic analysis, Dunnett's test was used.

macrophage foam cell = assay: Inhibition of macrophage foam cell formation in high-cholesterol-diet hamsters (aortic arch); assay type: in vivo, golden Syrian hamster; settings: 6 weeks, 8 hamsters, p < 0.01 vs HCD group (HCD 25.7 ± 2.7)
Excerpt: Experiment 3 Inhibition of macrophage foam cell formation
Male golden Syrian hamster of 12 weeks old, were used for the experiment. Hamsters were classified into a group wherein hamsters were fed with usual powder diet (OD group), a group wherein hamsters were fed with diet containing high cholesterol (2%) (HCD group) and a group wherein hamsters were fed with diet containing high cholesterol (2%) and the compound I-36 of the present invention (HCD +I-36 group) and animals in each group were fed for 6 weeks. The added amount of the compound 1-36 of the present invention was 0.01, 0.03 and 0.1% and they were equivalent to 6, 19, 66 mg/kg, respectively, calculated from food intake. Each group contains 8 hamsters.
After feeding for 6 weeks, hamsters were anesthetized with pentobarbital and subjected to thoracotomy to expose a heart. Arch of the aorta was removed after reperfusion with phosphate-buffered 10% formalin solution from the ventricle. The arch of the aorta was opened longitudinally and the number of foam cells in a microphotograph after staining with oil red O was counted with a colony counter to calculate the number per aortic arch area. The significant difference between the groups was examined by Dunnett's multiple comparison test.

[3] = target: T2, endothelin B (ETB) receptor (Sus scrofa, UniProt P35463); assay: Measurement of affinity for endothelin B (ETB) receptor: inhibition of 125I-labeled endothelin-3 binding to COS-7 cells expressing pig ETB receptor; settings: 125I-endothelin-3 25 pM, 37° C., 1 h
T2 construct: expressed in transfected cells; host or cells: COS-7
T2 sequence (P35463 27-443): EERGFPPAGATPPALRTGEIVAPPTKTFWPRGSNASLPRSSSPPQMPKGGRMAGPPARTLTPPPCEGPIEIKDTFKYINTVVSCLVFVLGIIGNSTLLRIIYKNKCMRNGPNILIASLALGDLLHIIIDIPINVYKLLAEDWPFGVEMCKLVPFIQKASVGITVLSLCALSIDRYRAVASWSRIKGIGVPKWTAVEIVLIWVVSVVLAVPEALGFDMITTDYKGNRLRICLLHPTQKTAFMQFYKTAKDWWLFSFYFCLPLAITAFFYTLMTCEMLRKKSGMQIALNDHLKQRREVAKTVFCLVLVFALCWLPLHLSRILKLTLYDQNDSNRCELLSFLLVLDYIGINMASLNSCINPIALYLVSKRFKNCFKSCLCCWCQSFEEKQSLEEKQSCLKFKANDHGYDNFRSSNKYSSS
Method: Experiment 2 Measurement of affinity for endothelin B (ETB) receptor
Affinities for the ETB receptor were measured from the potency for inhibiting ^125 I-labeled endothelin-3 binding to COS-7 cells expressing the pig endothelin ETB receptor. In brief, a plasmid vector to which the pig endothelin ETB receptor gene was inserted was transfected to COS-7 cells by the lipofectin method. After the cells were washed with buffer, 10^3 -10^4 cells were dispersed in HEPES buffered Hanks' solution (0.1 ml) containing 25 pM of 125I labeled endothelin-3 and various kinds of protease inhibitors and incubated in the presence or absence of the compound of the present invention at 37° C. for 1 h. After completion of the reaction, the radioactivity bound was trapped by a glass fiber filter and measured with a gamma counter. Specific binding was calculated by subtracting the non-specific binding measured in the presence of 10^-7 M non-radioactive endothelin-3 from the total binding.

Compound | IC50 [1] [nM] | IC50 [3] [nM] | other results
Cc1noc(NS(=O)(=O)c2cccc3c(N(C)C)cccc23)c1C [BMS-182874] | – | – | number and size of foam cells (foam cells): reduce the number and size of foam cells
COc1ccc(C2=C(C(=O)O)C(c3ccc4c(c3)OCO4)Oc3ccc(OC(C)C)cc32)cc1 (stereo not drawn) [Compound I-36, 2-(Benz[1,3]dioxol-5-yl)-6-isopropoxy-4-(4-methoxy-phenyl)-2H-chromen-3-carboxylic acid] | 0.89 | 180 | skin blood flow (%), average from 20-25 min after cold exposure ([2]; insufficiency rat + I-36, 30 mg/kg, po, 2 h before 3° C. immersion, n = 4, p < 0.01 vs insufficiency rat control (37.20 ± 3.29)): 62.02 ± 1.23%; recovery of the tail blood flow ([2]; insufficiency rat + I-36, 30 mg/kg, po, in words): remarkable and significant; recovery of the blood flow after wash out ([2]; three days after administration of I-36, in words): same as that before administration; skin blood flow (%), average from 20-25 min after cold exposure ([2]; wash out: three days after administration of I-36, n = 4): 44.19 ± 5.83%; Aortic foam cell numbers / mm^2 (Mean ± SE) (macrophage foam cell; HCD + 0.01% I-36 in diet (equivalent to 6 mg/kg)): 10.1 ± 1.7 / mm^2; Aortic foam cell numbers / mm^2 (Mean ± SE) (macrophage foam cell; HCD + 0.03% I-36 in diet (equivalent to 19 mg/kg)): 9.1 ± 0.8 / mm^2; Aortic foam cell numbers / mm^2 (Mean ± SE) (macrophage foam cell; HCD + 0.1% I-36 in diet (equivalent to 66 mg/kg)): 8.8 ± 1.1 / mm^2
CCCOC1=C(C(=O)O)C(c2ccc3c(c2)OCO3)Oc2ccc(OC(C)C)cc21 (stereo not drawn) [Compound I-56] | 1.5 | 1300 | –
CC(C)OC1=C(C(=O)O)C(c2ccc3c(c2)OCO3)Oc2ccc(OC(C)C)cc21 (stereo not drawn) [Compound I-59] | 0.81 | 730 | –
CCCCCCOC1=C(C(=O)O)C(c2ccc3c(c2)OCO3)Oc2ccc(OC(C)C)cc21 (stereo not drawn) [Compound I-67] | 0.67 | 78 | –
CC(C)Oc1ccc2c(c1)C(OCCCCCO)=C(C(=O)O)C(c1ccc3c(c1)OCO3)O2 (stereo not drawn) [Compound I-68] | 0.95 | 880 | –
COC(CCCOC1=C(C(=O)O)C(c2ccc3c(c2)OCO3)Oc2ccc(OC(C)C)cc21)OC (stereo not drawn) [Compound I-70] | 1.2 | 270 | –
CCCCC1=C(C(=O)O)C(c2ccc3c(c2)OCO3)Oc2ccc(OC(C)C)cc21 (stereo not drawn) [Compound I-76] | 0.73 | 610 | –
CC(C)Oc1ccc2c(c1)C(C(C)C)=C(C(=O)O)C(c1ccc3c(c1)OCO3)O2 (stereo not drawn) [Compound I-78] | 0.63 | 2500 | –
Cc1ccc(C2=C(C(=O)O)C(c3ccc4c(c3)OCO4)Oc3ccc(OC(C)C)cc32)s1 (stereo not drawn) [Compound I-80, 2-(Benzo[1,3]dioxol-5-yl)-6-isopropoxy-4-(5-methyl-thiophen-2-yl)-2H-chromen-3-carboxylic acid] | 1 | 1800 | –
CC(C)CCC1=C(C(=O)O)C(c2ccc3c(c2)OCO3)Oc2ccc(OC(C)C)cc21 (stereo not drawn) [Compound I-83] | 1.9 | 480 | –
COCCCC1=C(C(=O)O)C(c2ccc3c(c2)OCO3)Oc2ccc(OC(C)C)cc21 (stereo not drawn) [Compound I-84] | 1.8 | 710 | –
C=CCCC1=C(C(=O)O)C(c2ccc3c(c2)OCO3)Oc2ccc(OC(C)C)cc21 (stereo not drawn) [Compound I-86] | 2.7 | 950 | –
CC(C)Oc1ccc2c(c1)C(CCCCO)=C(C(=O)O)C(c1ccc3c(c1)OCO3)O2 (stereo not drawn) [Compound I-87] | 2.3 | 1800 | –

Continued by falling IC50 [1], values first:

IC50 [1] [nM] | IC50 [3] [nM] | Compound | other results
0.62 | 69 | CCCCCCC1=C(C(=O)O)C(c2ccc3c(c2)OCO3)Oc2ccc(OC(C)C)cc21 (stereo not drawn) [Compound I-82] | –
0.58 | 46 | CC(C)Oc1ccc2c(c1)C(CC1CCCCC1)=C(C(=O)O)C(c1ccc3c(c1)OCO3)O2 (stereo not drawn) [Compound I-85] | –
0.53 | 350 | CC(C)Oc1ccc2c(c1)C(C1CCCC1)=C(C(=O)O)C(c1ccc3c(c1)OCO3)O2 (stereo not drawn) [Compound I-79, 2-(Benzo[1,3]dioxol-5-yl)-4-cyclopentyl-6-isopropoxy-2H-chromen-3-carboxylic acid] | –
0.5 | 85 | COc1ccc(CC2=C(C(=O)O)C(c3ccc4c(c3)OCO4)Oc3ccc(OC(C)C)cc32)cc1 (stereo not drawn) [Compound I-81, 2-(Benzo[1,3]dioxol-5-yl)-6-isopropoxy-4-(4-methoxy-benzyl)-2H-chromen-3-carboxylic acid] | –
0.48 | 150 | CCCCCOC1=C(C(=O)O)C(c2ccc3c(c2)OCO3)Oc2ccc(OC(C)C)cc21 (stereo not drawn) [Compound I-58] | –
0.41 | 780 | CCCCOC1=C(C(=O)O)C(c2ccc3c(c2)OCO3)Oc2ccc(OC(C)C)cc21 (stereo not drawn) [Compound I-57] | –
0.38 | 130 | C=CCCCOC1=C(C(=O)O)C(c2ccc3c(c2)OCO3)Oc2ccc(OC(C)C)cc21 (stereo not drawn) [Compound I-65, 2-(Benzo[1,3]dioxol-5-yl)-6-isopropoxy-4-(4-pentenyloxy-1-yl)-2H-chromen-3-carboxylic acid] | –
0.32 | 150 | CCCCCC1=C(C(=O)O)C(c2ccc3c(c2)OCO3)Oc2ccc(OC(C)C)cc21 (stereo not drawn) [Compound I-77, 2-(Benzo[1,3]dioxol-5-yl)-6-isopropoxy-4-pentyl-2H-chromen-3-carboxylic acid] | –
0.27 | 100 | CCCCSC1=C(C(=O)O)C(c2ccc3c(c2)OCO3)Oc2ccc(OC(C)C)cc21 (stereo not drawn) [Compound I-89, 2-(Benzo[1,3]dioxol-5-yl)-4-butylsulfanyl-6-isopropoxy-2H-chromen-3-carboxylic acid] | –
0.21 | 58 | COc1ccc(OC2=C(C(=O)O)C(c3ccc4c(c3)OCO4)Oc3ccc(OC(C)C)cc32)cc1 (stereo not drawn) [Compound I-74, 2-(Benzo[1,3]dioxol-5-yl)-6-isopropoxy-4-(4-methoxy-phenoxy)-2H-chromen-3-carboxylic acid] | –
